Literature values as cited in patent US20120263660A1, “Hair Loss Treatment” (POP TEST CORTISOL LLC, priority 2011, published 2012).

Tests used:
[1] = all phase I and phase II clinical trials already performed
[2] = disclosed in U.S. Pat. No. 6,011,025
[3] = test system: estrogen receptor; details: specificity for GR blockade
[4] = target: T1, progesterone receptor (Homo sapiens, UniProt P06401); details: specificity for GR blockade
T1 sequence (P06401 1-933): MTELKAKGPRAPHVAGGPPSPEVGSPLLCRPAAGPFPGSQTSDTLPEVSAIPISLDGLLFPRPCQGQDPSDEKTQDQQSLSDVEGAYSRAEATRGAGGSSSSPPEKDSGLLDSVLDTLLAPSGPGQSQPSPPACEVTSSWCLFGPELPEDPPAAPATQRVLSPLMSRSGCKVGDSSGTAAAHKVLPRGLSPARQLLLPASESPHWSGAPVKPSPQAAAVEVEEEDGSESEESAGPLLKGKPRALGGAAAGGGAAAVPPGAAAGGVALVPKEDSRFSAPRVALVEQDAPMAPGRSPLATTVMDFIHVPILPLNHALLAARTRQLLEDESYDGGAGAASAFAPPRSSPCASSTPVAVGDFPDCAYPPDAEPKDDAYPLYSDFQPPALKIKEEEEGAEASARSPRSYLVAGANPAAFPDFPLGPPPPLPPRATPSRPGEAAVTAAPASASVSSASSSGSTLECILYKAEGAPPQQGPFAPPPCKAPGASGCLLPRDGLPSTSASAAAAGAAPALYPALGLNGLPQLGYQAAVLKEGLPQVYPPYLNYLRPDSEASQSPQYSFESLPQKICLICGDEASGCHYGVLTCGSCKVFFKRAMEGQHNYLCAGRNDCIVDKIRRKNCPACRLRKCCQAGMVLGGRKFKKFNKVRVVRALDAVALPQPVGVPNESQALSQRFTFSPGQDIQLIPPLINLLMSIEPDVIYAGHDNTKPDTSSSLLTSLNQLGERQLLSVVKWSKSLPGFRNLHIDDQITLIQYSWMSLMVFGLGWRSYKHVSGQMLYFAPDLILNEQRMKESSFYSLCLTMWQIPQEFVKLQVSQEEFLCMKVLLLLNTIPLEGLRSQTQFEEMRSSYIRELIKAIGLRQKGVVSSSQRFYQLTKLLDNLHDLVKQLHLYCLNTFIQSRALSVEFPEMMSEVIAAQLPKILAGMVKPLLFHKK

[5] = target: T2, glucocorticoid receptor [GR] (Homo sapiens, UniProt P04150); details: disclosed in U.S. Pat. No. 6,011,025
T2 sequence (P04150 1-777): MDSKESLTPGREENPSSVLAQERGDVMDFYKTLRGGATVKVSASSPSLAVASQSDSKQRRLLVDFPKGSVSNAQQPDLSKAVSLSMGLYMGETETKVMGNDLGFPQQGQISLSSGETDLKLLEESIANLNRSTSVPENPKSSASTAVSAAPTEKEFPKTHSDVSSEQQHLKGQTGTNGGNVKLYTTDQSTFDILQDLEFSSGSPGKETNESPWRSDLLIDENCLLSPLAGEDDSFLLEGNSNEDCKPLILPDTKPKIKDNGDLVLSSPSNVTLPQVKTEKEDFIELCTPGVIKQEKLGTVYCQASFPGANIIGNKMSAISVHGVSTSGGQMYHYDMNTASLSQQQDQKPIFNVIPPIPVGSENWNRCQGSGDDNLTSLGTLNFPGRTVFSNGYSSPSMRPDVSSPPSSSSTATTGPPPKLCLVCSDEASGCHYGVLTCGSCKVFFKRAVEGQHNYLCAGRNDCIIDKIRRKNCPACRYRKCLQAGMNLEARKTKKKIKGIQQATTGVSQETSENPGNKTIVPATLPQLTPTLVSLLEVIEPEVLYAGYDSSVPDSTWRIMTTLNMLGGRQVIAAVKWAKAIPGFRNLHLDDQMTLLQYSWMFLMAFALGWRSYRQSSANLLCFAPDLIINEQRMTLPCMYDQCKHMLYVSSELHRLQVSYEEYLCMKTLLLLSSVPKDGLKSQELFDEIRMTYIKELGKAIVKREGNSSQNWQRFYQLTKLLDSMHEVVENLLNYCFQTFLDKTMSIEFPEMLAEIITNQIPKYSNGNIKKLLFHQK

[6] = disclosed in U.S. Pat. No. 6,011,025; remark: listed apart in the source

CC#C[C@]1(O)CC[C@H]2[C@@H]3CCC4=CC(=O)CCC4=C3[C@@H](c3ccc4c(c3)OCO4)C[C@@]21C [ORG 34517]
significant toxicities and side effects [1]: none were identified
progestagenic activity [2]: low
cross-binding to estrogen receptor [3]: without significant cross-binding
cross-binding to progesterone receptor [4]: without significant cross-binding
GR binding affinity [5]: high
androgenic activity [6]: low
